The structures appear in SMILES notation.

Consider 15 compounds from patent publication US6822120B2, “Sulfone liver X-receptor modulators” (Pharmacia Corporation, priority 2002, dated 2004).

`CCC(c1ccc(C(O)(C(F)(F)F)C(F)(F)F)cc1)S(=O)(=O)c1ccccc1` (stereo not drawn) [Example 15, 1,1,1,3,3,3-Hexafluoro-2-{4-[1-(phenylsulfonyl)propyl]phenyl}propan-2-ol] yielded a melting point of 148 °C. The same measure for `O=S(=O)(Cc1ccc(C(O)(C(F)(F)F)C(F)(F)F)cc1)c1ccc2ccccc2c1` [Example 3, 1,1,1,3,3,3-Hexafluoro-2-{4-[(2-naphthylsulfonyl)methyl]phenyl}propan-2-ol]: 148 °C; for `O=S(=O)(c1ccccc1)C(Cc1ccccc1)c1ccc(C(O)(C(F)(F)F)C(F)(F)F)cc1` (stereo not drawn) [Example 9, 1,1,1,3,3,3-Hexafluoro-2-{4-[2-phenyl-1-(phenylsulfonyl)ethyl]phenyl}propan-2-ol]: 157 °C; for `CC(c1ccc(C(O)(C(F)(F)F)C(F)(F)F)cc1)S(=O)(=O)c1ccccc1` (stereo not drawn) [Example 8, 1,1,1,3,3,3-Hexafluoro-2-{4-[1-(phenylsulfonyl)ethyl]phenyl}propan-2-ol]: 136 °C. The same measure for `O=S(=O)(Cc1ccc(C(O)(C(F)(F)F)C(F)(F)F)cc1)c1ccccc1Br` [Example 5, 2-(4-{[(2-Bromophenyl)sulfonyl]methyl}phenyl)-1,1,1,3,3,3-hexafluoropropan-2-ol]: 124 °C; for `O=S(=O)(c1ccccc1)C(Cc1ccc(-c2ccccc2)cc1)c1ccc(C(O)(C(F)(F)F)C(F)(F)F)cc1` (stereo not drawn) [Example 18, 2-{4-[2-(1,1′-Biphenyl-4-yl)-1-(phenylsulfonyl)ethyl]phenyl}-1,1,1,3,3,3-hexafluoropropan-2-ol]: 192 °C. Consider `CC(C)(c1ccc(C(O)(C(F)(F)F)C(F)(F)F)cc1)S(=O)(=O)c1ccccc1` [Example 19, 1,1,1,3,3,3-Hexafluoro-2-{4-[1-methyl-1-(phenylsulfonyl)ethyl]phenyl}propan-2-ol], for which the melting point was found to be 185 °C. In the case of `O=S(=O)(Cc1ccc(C(O)(C(F)(F)F)C(F)(F)F)cc1)c1ccc(Br)cc1` [Example 4, 2-(4-{[(4-Bromophenyl)sulfonyl]methyl}phenyl)-1,1,1,3,3,3-hexafluoropropan-2-ol] it was 126 °C; in that of `O=S(=O)(Cc1ccc(C(O)(C(F)(F)F)C(F)(F)F)cc1)c1ccc(Cl)cc1` [Example 7, 2-(4-{[(4-Chlorophenyl)sulfonyl]methyl}phenyl)-1,1,1,3,3,3-hexafluoropropan-2-ol], 112 °C; in that of `O=S(=O)(Cc1ccc(C(O)(C(F)(F)F)C(F)(F)F)cc1)c1cccc(Br)c1` [Example 6, 2-(4-{[(3-Bromophenyl)sulfonyl]methyl}phenyl)-1,1,1,3,3,3-hexafluoropropan-2-ol], 121 °C.

`Cc1ccc(S(=O)(=O)Cc2ccc(C(O)(C(F)(F)F)C(F)(F)F)cc2)cc1` [Example 2, 1,1,1,3,3,3-Hexafluoro-2-(4-{[(4-methylphenyl)sulfonyl]methyl}phenyl)propan-2-ol] returned a melting point of 129 °C. In the case of `CC(C)(C)C(=O)C(c1ccc(C(O)(C(F)(F)F)C(F)(F)F)cc1)S(=O)(=O)c1ccccc1` (stereo not drawn) [Example 11, 3,3-Dimethyl-1-(phenylsulfonyl)-1-{4-[2,2,2-trifluoro-1-hydroxy-1-(trifluoromethyl) -ethyl]phenyl}butan-2-one] it was 172 °C; in that of `O=S(=O)(c1ccccc1)C(CC(F)(F)F)c1ccc(C(O)(C(F)(F)F)C(F)(F)F)cc1` (stereo not drawn) [Example 16, 1,1,1,3,3,3-Hexafluoro-2-{4-[3,3,3-trifluoro-1-(phenylsulfonyl)propyl]phenyl}propan-2-ol], 151 °C. The compound `Cc1ccc(CC(c2ccc(C(O)(C(F)(F)F)C(F)(F)F)cc2)S(=O)(=O)c2ccccc2)cc1` (stereo not drawn) [Example 17, 1,1,1,3,3,3-Hexafluoro-2-{4-[2-(4-methylphenyl)-1-(phenylsulfonyl)ethyl]phenyl}propan-2-ol] registered a melting point of 159 °C. In the case of `C=CCC(c1ccc(C(O)(C(F)(F)F)C(F)(F)F)cc1)S(=O)(=O)c1ccccc1` (stereo not drawn) [Example 14, 1,1,1,3,3,3-Hexafluoro-2-{4-[1-(phenylsulfonyl)but-3-enyl]phenyl}propan-2-ol] it was 148 °C.

A word on the melting point: it is the temperature of the solid-liquid transition.
